Measurements taken from article PMC12661400, “Oral bioavailable ITRI-148 degrades androgen receptor variants and overcomes antiandrogen resistance in advanced prostate cancer” (Neoplasia (New York, N.Y.), 2025).

Columns and labels:
[1] = In vitro stability in plasma; format: in vitro ADME, mouse; details: mice plasma
Description: (§1) The stability of ITRI-148 was assessed in plasma across four species: humans, dogs, rats, and mice. ITRI-148 added to pre-warmed plasma at 1 μM was maintained at the designated temperature, and aliquots were collected at 0, 0.5, 1, 2, and 4 hours after incubation. At each time point, 20 μL of the samples was taken to terminate the reaction, followed by LC-MS/MS analysis to determine the remaining compound concentration. Data from duplicated experiments was calculated and presented as mean ± SD.

[2] = Repeated-dose toxicity study: mortality, body weight, tolerability; format: in vivo
Description: Repeated-dose toxicity and toxicokinetic studies
Repeated-dose oral toxicity study and toxicokinetic (TK) profiling was conducted in Sprague-Dawley rats. ITRI-148 was administered once daily using oral gavage at doses of 100, 300, 600, and 1000 mg/kg/day for 7 consecutive days, followed by a 7-day recovery period. Each dose group comprised 3 animals designated for toxicokinetic (TK) analysis and 6 animals for dose-range finding (DRF) evaluation. Clinical observations, body weights, and food consumption were monitored daily throughout the dosing and recovery periods. […]
All samples were analyzed in duplicate. Hematology and serum clinical chemistry analyses were performed on Day 7 (end of dosing) and Day 14 (end of recovery). At necropsy, organ weights (including heart, liver, kidney, spleen, thymus, and adrenal glands) were recorded, and gross pathological changes were examined. All procedures were conducted in compliance with institutional animal care and use guidelines. […]
Targeting androgen receptor and the variants by an orally bioavailable
Proteolysis Targeting Chimeras compound in castration resistant prostate cancer

[3] = In vitro stability in plasma; format: in vitro ADME; details: for Remaining of intact drug (%): 1 μM, incubation up to 4 hours; for half-life at 1 μM: read-out: Plasma Stability t1/2
Description: as §1

[4] = Pharmacokinetic analysis after oral dosing in mice; format: in vivo, BALB/c mice
Description: Six to eight-week-old male BALB/c (BALB/cAnNCrlBltw) mice (22-30 g) were purchased from BioLASCO Taiwan Co., Ilan, Taiwan. In vivo PK analysis of ITRI-148 was performed with 10 mg/kg for oral (PO, n = 3) dosing route. Blood samples from the mice were collected using Microvette® CB 300 EDTA blood collection tubes by a lancet at 0.167 h (IV only), 0.5, 1, 2, 4, 7 and 24 h time points. The plasma was then subjected to LC-MS analysis to quantitate the drug concentration using calibration curves that were established with drug standards prepared in mice plasma.

[5] = Metabolic stability in liver microsomes; format: in vitro ADME; details: for Remaining of intact drug (%): 1 μM, incubation up to 60 minutes; for half-life at 1 μM: pH 7.4, read-out: Plasma Stability t1/2 (microsome panel)
Description: (§2) The metabolic stability of all PROTAC compounds in the screening phase (Table 1) was evaluated using mouse liver microsomes. Incubations were performed at 37 °C in phosphate buffer (pH 7.4) containing NADPH (1 mM), 0.5 mg/mL microsomal protein and 1 μM ITRI-148 (0.25 % DMSO) for 0, 5, 20, or 30 minutes, followed by quenching with acetonitrile (1:3, v/v) for HPLC analysis. To evaluate the species-specific metabolism of ITRI-148, its stability was assessed in liver microsomes from human, dog, rat, and mouse using same incubation conditions as above, with the time extending to 0, 15, 30, 45, and 60 minutes, followed by acetonitrile quenching (1:10) and LC-MS/MS analysis.

[6] = Metabolic stability in mouse liver microsomes; format: in vitro ADME
Description: as §2

[7] = test system: CWR22Rv1 xenografts; experiment: Hormone-intact CWR22Rv1 xenograft study; format: in vivo
Text: Immunodifficient male CB-17 SCID mice (CB17/Icr-Prkdc^scid/IcrIcoCrlBltw) and NOD SCID mice (NOD.CB17-Prkdc^scid/NCrCrlBltw) mice at four to six weeks of age were purchased from BioLASCO Taiwan Co., Ilan, Taiwan. All mice were housed in conventional cages in the AAALAC Full Accreditation (2011) in Industrial Technology Research Institute and were allowed to acclimatize and recover from shipping-related stress for one week prior to the study. The health of the mice was monitored by daily observations. Animals were kept in rooms at temperature of 22–26°C with 40–70 % humidity, positive pressure, 60 % air recirculation, ventilation rate 15–20 changes per hour, and a controlled light-dark cycle (12–12 hours). The order and location of each animal cage was randomly assigned to minimize potential confounders. CWR22Rv1 cells (5 × 10^6) were suspended in 100 μL of PBS with 30 % Matrigel and subcutaneously implanted into the right flank of male CB-17 SCID mice. Tumors were measured with calipers, and tumor size was calculated as follows: tumor volume (V) = (L × S^2)/2 (L, longest diameter, mm; S, shortest diameter, mm). When mean tumor volume reached 150–200 mm^3, the mice were randomly assigned into indicated groups (n = 5-6/ group) and the day of initiating treatments was assigned as day 0. VCaP cells (5 × 10⁶) suspended in 50 % Matrigel were subcutaneously implanted into male NOD SCID mice. […] Tumor size and body weight of the animals were monitored and recorded two to three times per week. […] The drug antitumor efficacy was presented as percentages of TGI of each tested animal, calculated as follows: [1 − (final tumor volume ^treated group – initial tumor volume ^treated group) / (final tumor volume ^vehicle group – initial tumor volume ^vehicle group)] × 100. Body weight of each mouse was also compared to that on the first day of treatment (day 0) and expressed as a percentage of day 0 value. […] Statistical analysis of the differences between two drug and vehicle treated groups was determined by two-tailed Student’s t-test.

[8] = male, BALB/c, mouse, plasma, po, 10 mg/kg

O=C1CCC(N2C(=O)c3cccc(NCC(=O)N4CCC(N5CCC(C#Cc6ccc(C7CCN(C8=Nn9c(nnc9C(F)(F)F)CC8)CC7)cc6)CC5)CC4)c3C2=O)C(=O)N1 (centres unmarked) [ITRI-148]
Remaining of intact drug (%) ([1]; 1 μM, incubation up to 4 hours): 80.2 ± 0.3% | half-life at 1 μM ([1]; mouse, read-out: Plasma Stability t1/2): > 4 h | margin of maximum rat dose (1000 mg/kg) over the efficacious dose used in xenograft model ([2]; rat, in vivo): > 10 fold | body weight loss ([2]; rats, PO 100-1000 mg/kg/day, any treatment group): No animal exhibited >10% weight loss in any treatment group | Remaining of intact drug (%) ([3]; dog plasma): 79.4 ± 0.6% | half-life at 1 μM ([3]; dog plasma): > 4 h | Remaining of intact drug (%) ([3]; human plasma): 86.9 ± 5.2% | half-life at 1 μM ([3]; human plasma): > 4 h | Remaining of intact drug (%) ([3]; rat plasma): 62.1 ± 5.8% | half-life at 1 μM ([3]; rat plasma): > 4 h | AUC/Dose ([4]; PO, 10 mg/kg, 0-24 h per dosing): 990.1 h⋅kg⋅ng/mL/mg | BA ([4]; PO, 10 mg/kg, bioavailability): 27.1 ± 0.5% | PK (PO, 10 mg/kg) BA ([4]; PO, bioavailability): 27.1% | AUC [4, 8]: 9900 ng·h/mL | Cmax [4, 8]: 733 ± 45 ng/mL | Tmax [4, 8]: 4 h | AUC(0-t) ([4]; male, BALB/c, mouse, plasma, PO, 10 mg/kg, between 0 and 24 h): 9900 ng·h/mL | Remaining of intact drug (%) ([5]; dog liver microsomes): 88.3 ± 4.3% | Remaining of intact drug (%) ([5]; human liver microsomes): 85.9 ± 2.2% | half-life at 1 μM ([5]; dog liver microsomes): > 1 h | half-life at 1 μM ([5]; human liver microsomes): > 1 h | half-life at 1 μM ([5]; rat liver microsomes): > 1 h | Remaining of intact drug (%) ([5]; rat liver microsomes): 75.3 ± 1.2% | Remaining of intact drug (%) ([6]; mice liver microsomes, 1 μM, incubation up to 60 minutes): 80.7 ± 1.8% | remaining at 0.5 h, 1 μM ([6]; mouse, liver microsomes, pH 7.4, mice microsomes, 30 min of incubation, read-out: Microsome stability (% remaining)): 97.2% | half-life at 1 μM ([6]; mouse, pH 7.4, mice liver microsomes, read-out: Plasma Stability t1/2 (microsome panel)): > 1 h | toxicity reflected by weight-loss of the animals ([7]; PO 30-60 mg/kg BID): No toxicity reflected by weight-loss of the animals was observed | tumor growth inhibition (TGI) ([7]; oral 30 mg/kg BID): 38.08% | tumor growth inhibition (TGI) ([7]; oral 60 mg/kg BID): 69.39%
